Laboratory results published in US20170190671A1, “BIS(ARYL)CATECHOL DERIVATIVES AS HERBICIDES” (E I DU PONT DE NEMOURS AND COMPANY, priority 2014, published 2017).

Columns and labels:
Type in all cases: in vivo
[1] = tested on: sedge, umbrella (small-flower umbrella sedge, Cyperus difformis); assay: Test B flooded paddy; conditions: 250 g ai/ha, Flood, 13 to 15 days, scale 0 (no effect) to 100 (complete control)
Description: (§1) At time of treatment, test pots were flooded to 3 cm above the soil surface, treated by application of test compounds directly to the paddy water, and then maintained at that water depth for the duration of the test. Treated plants and controls were maintained in a greenhouse for 13 to 15 days, after which time all species were compared to controls and visually evaluated. […] A dash (-) response means no test result.

rice (Oryza sativa) = assay: Test B flooded paddy; conditions: 250 g ai/ha, Flood, 13 to 15 days, scale 0 (no effect) to 100 (complete control)
Description: as §1

[2] = tested on: barnyardgrass (Echinochloa crus-galli); assay: Test B flooded paddy; conditions: 250 g ai/ha, Flood, 13 to 15 days, scale 0 (no effect) to 100 (complete control)
Description: as §1

[3] = tested on: ducksalad (Heteranthera limosa); assay: Test B flooded paddy; conditions: 250 g ai/ha, Flood, 13 to 15 days, scale 0 (no effect) to 100 (complete control)
Description: as §1

[4] = tested on: ragweed (common ragweed, Ambrosia elatior); assay: Test A preemergence; conditions: 0 to 100 scale (0 no effect, 100 complete control)
Description: (§2) Seeds of plant species selected from barnyardgrass (Echinochloa crus-galli), kochia (Kochia scoparia), ragweed (common ragweed, Ambrosia elatior), Italian ryegrass (Lolium multiflorum), large (Lg) crabgrass (Digitaria sanguinalis), giant foxtail (Setaria faberii), morningglory (Ipomoea spp.), pigweed (Amaranthus retroflexus), velvetleaf (Abutilon theophrasti), wheat (Triticum aestivum), and corn (Zea mays) were planted into a blend of loam soil and sand and treated preemergence with a directed soil spray using test chemicals formulated in a non-phytotoxic solvent mixture which included a surfactant.
(§3) At the same time, plants selected from these crop and weed species and also blackgrass (Alopecurus myosuroides), and galium (catchweed bedstraw, Galium aparine) were planted in pots containing the same blend of loam soil and sand and treated with postemergence applications of test chemicals formulated in the same manner. Plants ranged in height from 2 to 10 cm and were in the one- to two-leaf stage for the postemergence treatment. Treated plants and untreated controls were maintained in a greenhouse for approximately 10 days, after which time all treated plants were compared to untreated controls and visually evaluated for injury. Plant response ratings, summarized in Table A, are based on a 0 to 100 scale where 0 is no effect and 100 is complete control. A dash (-) response means no test result.

[5] = tested on: Italian ryegrass (Lolium multiflorum); assay: Test A preemergence; conditions: 0 to 100 scale (0 no effect, 100 complete control)
Description: as §2, §3

[6] = tested on: giant foxtail (Setaria faberii); assay: Test A preemergence; conditions: 0 to 100 scale (0 no effect, 100 complete control)
Description: as §2, §3

[7] = tested on: pigweed (Amaranthus retroflexus); assay: Test A preemergence; conditions: 0 to 100 scale (0 no effect, 100 complete control)
Description: as §2, §3

kochia (Kochia scoparia) [8] = assay: Test A preemergence; conditions: 0 to 100 scale (0 no effect, 100 complete control)
Description: as §2, §3

[9] = tested on: barnyardgrass (Echinochloa crus-galli); assay: Test A preemergence; conditions: for Barnyardgrass plant response rating: 0 to 100 scale (0 no effect, 100 complete control)
Description: as §2, §3

[10] = tested on: galium (catchweed bedstraw, Galium aparine); assay: Test A postemergence; conditions: 0 to 100 scale
Description: as §2, §3

[11] = tested on: ragweed (common ragweed, Ambrosia elatior); assay: Test A postemergence; conditions: 0 to 100 scale
Description: as §2, §3

corn (Zea mays) = assay: Test A postemergence; conditions: 0 to 100 scale
Description: as §2, §3

[12] = tested on: Italian ryegrass (Lolium multiflorum); assay: Test A postemergence; conditions: 0 to 100 scale
Description: as §2, §3

[13] = tested on: giant foxtail (Setaria faberii); assay: Test A postemergence; conditions: 0 to 100 scale
Description: as §2, §3

[14] = tested on: pigweed (Amaranthus retroflexus); assay: Test A postemergence; conditions: 0 to 100 scale
Description: as §2, §3

[15] = tested on: blackgrass (Alopecurus myosuroides); assay: Test A postemergence; conditions: 0 to 100 scale
Description: as §2, §3

kochia (Kochia scoparia) [16] = assay: Test A postemergence; conditions: 0 to 100 scale
Description: as §2, §3

[17] = tested on: barnyardgrass (Echinochloa crus-galli); assay: Test A postemergence; conditions: 0 to 100 scale
Description: as §2, §3

[18] = tested on: wheat (Triticum aestivum); assay: Test A postemergence; conditions: 0 to 100 scale
Description: as §2, §3

Fc1ccc(Oc2ccc(C(F)(F)F)cn2)c(Oc2ncc(Cl)cn2)c1 [Compound 45, 5-chloro-2-[5-fluoro-[2-[5-(trifluoromethyl)pyridin-2-yl]oxy]phenoxy]pyrimidine]
75: Plant response rating, Ducksalad [3]
30: Foxtail, Giant plant response rating ([6]; 31 g ai/ha) | Barnyardgrass plant response rating ([9]; 125 g ai/ha) | Plant response rating, Corn (corn (Zea mays); 125 g ai/ha) | Plant response rating, Blackgrass ([15]; 125 g ai/ha)
0: Plant response rating, Rice (rice (Oryza sativa)) | Plant response rating, Barnyardgrass [2] | Ragweed plant response rating ([4]; 31 g ai/ha) | Ryegrass, Italian plant response rating ([5]; 31 g ai/ha) | Ryegrass, Italian plant response rating ([5]; 125 g ai/ha) | Pigweed plant response rating ([7]; 31 g ai/ha) | Pigweed plant response rating ([7]; 125 g ai/ha) | Kochia plant response rating (kochia (Kochia scoparia) [8]; 31 g ai/ha) | Barnyardgrass plant response rating ([9]; 31 g ai/ha) | Plant response rating, Ragweed ([11]; 31 g ai/ha) | Plant response rating, Corn (corn (Zea mays); 31 g ai/ha) | Plant response rating, Ryegrass, Italian ([12]; 31 g ai/ha) | Plant response rating, Ryegrass, Italian ([12]; 125 g ai/ha) | Plant response rating, Foxtail, Giant ([13]; 31 g ai/ha) | Plant response rating, Foxtail, Giant ([13]; 125 g ai/ha) | Plant response rating, Blackgrass ([15]; 31 g ai/ha) | Plant response rating, Barnyardgrass ([17]; 31 g ai/ha) | Plant response rating, Barnyardgrass ([17]; 125 g ai/ha) | Plant response rating, Wheat ([18]; 31 g ai/ha)
80: Plant response rating, Kochia (kochia (Kochia scoparia) [16]; 125 g ai/ha)
20: Plant response rating, Ragweed ([11]; 125 g ai/ha) | Plant response rating, Pigweed ([14]; 31 g ai/ha) | Plant response rating, Pigweed ([14]; 125 g ai/ha) | Plant response rating, Kochia (kochia (Kochia scoparia) [16]; 31 g ai/ha) | Plant response rating, Wheat ([18]; 125 g ai/ha)
100: Foxtail, Giant plant response rating ([6]; 125 g ai/ha)
60: Plant response rating, Galium ([10]; 31 g ai/ha)
70: Plant response rating, Sedge, Umbrella [1] | Plant response rating, Galium ([10]; 125 g ai/ha)
10: Ragweed plant response rating ([4]; 125 g ai/ha) | Kochia plant response rating (kochia (Kochia scoparia) [8]; 125 g ai/ha)

Fc1ccc(F)c(Oc2ncc(C(F)(F)F)cn2)c1Oc1ncc(C(F)(F)F)cn1 [Compound 30]
10: Foxtail, Giant plant response rating ([6]; 31 g ai/ha) | Kochia plant response rating (kochia (Kochia scoparia) [8]; 31 g ai/ha) | Plant response rating, Barnyardgrass ([9]; 125 g ai/ha, 0 to 100 scale) | Plant response rating, Foxtail, Giant ([13]; 125 g ai/ha)
50: Foxtail, Giant plant response rating ([6]; 125 g ai/ha)
20: Kochia plant response rating (kochia (Kochia scoparia) [8]; 125 g ai/ha)
60: Plant response rating, Galium ([10]; 31 g ai/ha) | Plant response rating, Pigweed ([14]; 31 g ai/ha)
0: Plant response rating, Sedge, Umbrella [1] | Plant response rating, Rice (rice (Oryza sativa)) | Plant response rating, Barnyardgrass [2] | Plant response rating, Ducksalad [3] | Ragweed plant response rating ([4]; 31 g ai/ha) | Ragweed plant response rating ([4]; 125 g ai/ha) | Ryegrass, Italian plant response rating ([5]; 31 g ai/ha) | Ryegrass, Italian plant response rating ([5]; 125 g ai/ha) | Barnyardgrass plant response rating ([9]; 31 g ai/ha) | Plant response rating, Ragweed ([11]; 31 g ai/ha) | Plant response rating, Ragweed ([11]; 125 g ai/ha) | Plant response rating, Corn (corn (Zea mays); 31 g ai/ha) | Plant response rating, Corn (corn (Zea mays); 125 g ai/ha) | Plant response rating, Ryegrass, Italian ([12]; 31 g ai/ha) | Plant response rating, Ryegrass, Italian ([12]; 125 g ai/ha) | Plant response rating, Foxtail, Giant ([13]; 31 g ai/ha) | Plant response rating, Blackgrass ([15]; 31 g ai/ha) | Plant response rating, Kochia (kochia (Kochia scoparia) [16]; 31 g ai/ha) | Plant response rating, Kochia (kochia (Kochia scoparia) [16]; 125 g ai/ha) | Plant response rating, Barnyardgrass ([17]; 31 g ai/ha) | Plant response rating, Barnyardgrass ([17]; 125 g ai/ha) | Plant response rating, Wheat ([18]; 31 g ai/ha) | Plant response rating, Wheat ([18]; 125 g ai/ha)
70: Plant response rating, Galium ([10]; 125 g ai/ha) | Plant response rating, Pigweed ([14]; 125 g ai/ha)
100: Pigweed plant response rating ([7]; 125 g ai/ha)
30: Plant response rating, Blackgrass ([15]; 125 g ai/ha)
90: Pigweed plant response rating ([7]; 31 g ai/ha)
